Data: ChEMBL document CHEMBL1150729, “Constituents of Paramichelia baillonii: a new antitumor germacranolide alkaloid” (1987)
In brackets after ≈: the same amount, converted by molar mass. Activity calls are given as the source filed them. No cut-off for these calls is given here.

Assays:
Type in all cases: functional
9KB = test: (§1) Cytotoxicity against human 9KB cells
KB = test: Cytotoxicity against human KB cells; settings: read-out: ED50 (the source's name)
[1] = Cytotoxicity against human Laryngeal epidermoid carcinoma cells; settings: read-out: ED50 (the source's name)
[2] = as §1; settings: read-out: ED50 (the source's name)

Question: With `C/C1=C\CC[C@@]2(C)O[C@H]2[C@H]2OC(=O)[C@@H](C)[C@@H]2CC1` as the compound, how does the Activity (9KB) read?
Answer: inactive

Question: Which EC50 (KB) does the source give for `C/C1=C\CC[C@@]2(C)O[C@H]2[C@H]2OC(=O)[C@@H](CNC[C@@H]3C(=O)O[C@H]4[C@H]3CC/C(C)=C/CC[C@@]3(C)O[C@@H]43)[C@@H]2CC1` here?
Answer: 0.6 µg/mL (≈ 1.17 µM)

Question: For `C=C1C(=O)O[C@@H]2C3O[C@]3(C)CC/C=C(\C)CC[C@@H]12` (stereo not given in full), which EC50 [1] is on record?
Answer: 0.76 µg/mL (≈ 3.06 µM)

Question: And the EC50 [2]?
Answer: 0.45 µg/mL (≈ 1.81 µM)

Question: For `O=C1c2ccccc2-c2c3c(cc4ccnc1c24)OCO3` [LIRIODENINE], which EC50 [2] is on record?
Answer: 1.6 µg/mL (≈ 5.81 µM)
